In US7998978B2 (Pfizer Inc., priority 2006, dated 2011):

The molecules below were run against T1, JNK1α1 (Homo sapiens, UniProt P45983) (assay: Coupled spectrophotometric (PK/LDH) JNK1α1 assay: % inhibition and Ki determination). Conditions: @1 uM; read-out: % Inhibition JNK-1.
T1 construct: catalytic domain containing amino acids 1-364 and N-terminal hexahistidine tag; hexahistidine (His6) (N); made in house; host or cells: E. coli BL21 (DE3)
Assay type: biochemical
Method in brief: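 Initial rates were taken from the absorbance decrease at 340 nm at 30° C. Ki was fitted with a tight-binding model over 11 concentrations (top 100 μM); single-point inhibition was tested at 1 or 10 μM.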

T1 sequence (P45983 1-364): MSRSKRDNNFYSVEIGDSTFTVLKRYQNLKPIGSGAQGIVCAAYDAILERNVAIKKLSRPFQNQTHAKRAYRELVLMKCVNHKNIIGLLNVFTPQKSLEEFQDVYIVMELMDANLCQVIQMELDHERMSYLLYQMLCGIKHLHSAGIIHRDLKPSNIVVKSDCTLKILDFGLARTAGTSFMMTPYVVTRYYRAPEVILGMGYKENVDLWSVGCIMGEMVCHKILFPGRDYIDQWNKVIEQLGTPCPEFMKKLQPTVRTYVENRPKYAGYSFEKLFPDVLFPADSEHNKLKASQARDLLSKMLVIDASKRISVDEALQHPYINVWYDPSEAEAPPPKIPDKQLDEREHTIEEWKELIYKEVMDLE

Compared with O=C(N[C@H](CO)Cc1ccccc1)c1ccc2cnc(NC3CCC3)nc2c1 [Example 420, N-[(1S)-1-benzyl-2-hydroxyethyl]-2-(cyclobutylamino)quinazoline-7-carboxamide], O=C(NCCO)c1ccc2cnc(NC3CCC3)nc2c1 [Example 430, 2-(cyclobutylamino)-N-(2-hydroxyethyl)quinazoline-7-carboxamide] is lower in inhibition at 1 µM: 21% for the first, 11% for the second.

First: O=C(NC1(CO)CCCC1)c1ccc2cnc(NC3CCCC3)nc2c1 [Example 421, 2-(cyclopentylamino)-N-[1-(hydroxymethyl)cyclopentyl]quinazoline-7-carboxamide]
Second: O=C(NC1(CO)CCCC1)c1ccc2cnc(NC3CCC3)nc2c1 [Example 422, 2-(cyctobutylamino)-N-[1-(hydroxymethyl)cyclopentyl]quinazoline-7-carboxamide]
The inhibition at 1 µM of the first is higher: 15% for the first, 13% for the second.

CC(C)Nc1ncc2ccc(C(=O)NC3(CO)CCCC3)cc2n1 [Example 423, N-[1-(hydroxymethyl)cyclopentyl]-2-(isopropylamino)quinazoline-7-carboxamide] and CC(C)Nc1ncc2ccc(C(=O)NCCO)cc2n1 [Example 431, N-(2-hydroxyethyl)-2-(isopropylamino)quinazoline-7-carboxamide] are the same in inhibition at 1 µM: 15% for the first, 15% for the second.

Going from CC(C)[C@@H](CO)NC(=O)c1ccc2cnc(NC3CCC3)nc2c1 [Example 424, 2-(cyclobutylamino)-N-[(1S)-1-(hydroxymethyl)-2-methylpropyl]quinazoline-7-carboxamide] to CC(C)Nc1ncc2ccc(C(=O)N[C@H](CO)C(C)C)cc2n1 [Example 425, N-[(1S)-1-(hydroxymethyl)-2-methylpropyl]-2-(isopropylamino)quinazoline-7-carboxamide], the inhibition at 1 µM falls from 22% to 11%.

Compared with O=C(NCCO)c1ccc2cnc(NC3CCCCC3)nc2c1 [Example 426, 2-(cyclohexylamino)-N-(2-hydroxyethyl)quinazoline-7-carboxamide], O=C(NCCO)c1ccc2cnc(NC3CCCC3)nc2c1 [Example 427, 2-(cyclopentylamino)-N-(2-hydroxyethyl)quinazoline-7-carboxamide] is lower in inhibition at 1 µM: 23% for the first, 21% for the second.

First: O=C(N[C@H](CO)CC1CCCCC1)c1ccc2cnc(NC3CCC3)nc2c1 [Example 428, 2-(cyclobutylamino)-N-[(1S)-2-cyclohexyl-1-(hydroxymethyl)ethyl]quinazoline-7-carboxamide]
Second: CC(C)Nc1ncc2ccc(C(=O)N[C@H](CO)CC3CCCCC3)cc2n1 [Example 429, N-[(1S)-2-cyclohexyl-1-(hydroxymethyl)ethyl]-2-(isopropylamino)quinazoline-7-carboxamide]
The inhibition at 1 µM of the first is lower: 17% for the first, 25% for the second.

First: CC(C)Nc1ncc2ccc(C(=O)N[C@@H]3COC[C@H]3O)cc2n1 [Example 432, N-((3R,4S)-4-hydroxytetrahydrofuran-3-yl]-2-(isopropylamino)quinazoline-7-carboxamide]
Second: O=C(N[C@@H]1COC[C@H]1O)c1ccc2cnc(NC3CCC3)nc2c1 [Example 433, 2-(cyclobutylamino)-N-[(3R,4S)-4-hydroxytetrahydrofuran-3-yl]quinazoline-7-carboxamide]
The inhibition at 1 µM of the first is lower: 15% for the first, 24% for the second.

Going from CC(C)Nc1ncc2ccc(C(=O)N[C@@H](C)CO)cc2n1 [Example 434, N-[(1S)-2-hydroxy-1-methylethyl]-2-(isopropylamino)quinazoline-7-carboxamide] to O=C(N[C@@H]1COC[C@H]1O)c1ccc2cnc(NC3CCCC3)nc2c1 [Example 435, 2-(cyclopentylamino)-N-[(3R,4S)-4-hydroxytetrahydrofuran-3-yl]quinazoline-7-carboxamide], the inhibition at 1 µM rises from 15% to 22%.

Same assay, conditions: @10 uM; read-out: % Inhibition JNK-1

First: CC[C@@H](CO)NC(=O)c1ccc2cnc(NC3CCCC3)nc2c1 [Example 436, 2-(cyctopentylamino)-N-[(1S)-1-(hydroxymethyl)propyl]quinazoline-7-carboxamide]
Second: C[C@@H](CO)NC(=O)c1ccc2cnc(NC3CCC3)nc2c1 [Example 437, 2-(cyclobutylamino)-N-[(1S)-2-hydroxy-1-methylethyl]quinazoline-7-carboxamide]
The inhibition at 10 µM of the first is higher: 85% for the first, 57% for the second.

Compared with CC(C)(CO)NC(=O)c1ccc2cnc(NC3CCCC3)nc2c1 [Example 438, 2-(cyclopentylamino)-N-(2-hydroxy-1,1-dimethylethyl)quinazoline-7-carboxamide], CC(C)(CO)NC(=O)c1ccc2cnc(NC3CCC3)nc2c1 [Example 439, 2-(cyclobutylamino)-N-(2-hydroxy-1,1-dimethylethyl)quinazoline-7-carboxamide] is lower in inhibition at 10 µM: 63% for the first, 44% for the second.

Molecule CC(C)Nc1ncc2ccc(C(=O)NC(C)(C)CO)cc2n1 [Example 440, N-(2-hydroxy-1,1-dimethylethyl)-2-(isopropylamino)quinazoline-7-carboxamide] has an inhibition at 10 µM of 48%.

Same assay, conditions: JNK-1

O=C(NC1(CO)CCCC1)c1ccc2cnc(N[C@H]3CC[C@H](O)CC3)nc2c1 [Example 400, 2-[(trans-4-hydroxycyclohexyl)amino]-N-[1-(hydroxymethyl)cyclopentyl]quinazoline-7-carboxamide] and O=C(NC1(CO)CCCC1)c1ccc2cnc(NC3CCCCC3)nc2c1 [Example 401, 2-(cyclohexylamino)-N-[1-(hydroxymethyl)cyclopentyl]quinazoline-7-carboxamide] are within 1.5-fold of each other in Ki: 478 nM for the first, 490 nM for the second.

O=C(N[C@H](CO)Cc1ccccc1)c1ccc2cnc(N[C@H]3CC[C@H](O)CC3)nc2c1 [Example 402, N-[(1S)-1-benzyl-2-hydroxyethyl]-2-[(trans-4-hydroxycyclohexyl)amino]quinazoline-7-carboxamide] and O=C(N[C@H](CO)Cc1ccccc1)c1ccc2cnc(NC3CCCC3)nc2c1 [Example 408, N-[(1S)-1-benzyl-2-hydroxyethyl]-2-(cyclopentylamino)quinazoline-7-carboxamide] are within 1.5-fold of each other in Ki: 605 nM for the first, 743 nM for the second.

Compared with C[C@@H](CO)NC(=O)c1ccc2cnc(N[C@H]3CC[C@H](O)CC3)nc2c1 [Example 403, 2-[(trans-4-hydroxycyclohexyl)amino]-N-[(1S)-2-hydroxy-1-methylethyl]quinazoline-7-carboxamide], C[C@@H](CO)NC(=O)c1ccc2cnc(NC3CCCC3)nc2c1 [Example 418, 2-(cyclopentylamino)-N-[(1S)-2-hydroxy-1-methylethyl]quinazoline-7-carboxamide] is 2.7-fold higher in Ki: 637 nM for the first, 1720 nM for the second.

O=C(N[C@@H]1COC[C@H]1O)c1ccc2cnc(N[C@H]3CC[C@H](O)CC3)nc2c1 [Example 404, 2-[(trans-4-hydroxycyclohexyl)amino]-N-[(3R,4S)-4-hydroxytetrahydrofuran-3-yl]quinazoline-7-carboxamide] and O=C(N[C@@H]1COC[C@H]1O)c1ccc2cnc(NC3CCCCC3)nc2c1 [Example 405, 2-(cyclohexylamino)-N-[(3R,4S)-4-hydroxytetrahydrofuran-3-yl]quinazoline-7-carboxamide] are within 1.5-fold of each other in Ki: 667 nM for the first, 722 nM for the second.

Going from CCC[C@@H](CO)NC(=O)c1ccc2cnc(NC(C)C)nc2c1 [Example 406, N-[(1S)-1-(hydroxymethyl)butyl]-2-(isopropylamino)quinazoline-7-carboxamide] to CC[C@@H](CO)NC(=O)c1ccc2cnc(NC(C)C)nc2c1 [Example 411, N-[(1S)-1-(hydroxymethyl)propyl]-2-(isopropylamino)quinazoline-7-carboxamide], the Ki rises from 730 nM to 1100 nM (1.5-fold). The first binds more tightly here.

Compared with CC(C)[C@@H](CO)NC(=O)c1ccc2cnc(NC3CCCC3)nc2c1 [Example 407, 2-(cyclopentylamino)-N-[(1S)-1-(hydroxymethyl)-2-methylpropyl]quinazoline-7-carboxamide], CC[C@H](C)[C@@H](CO)NC(=O)c1ccc2cnc(NC3CCC3)nc2c1 [Example 414, 2-(cyclobutylamino)-N-[(1S,2S)-1-(hydroxymethyl)-2-methylbutyl]quinazoline-7-carboxamide] is 1.8-fold higher in Ki: 735 nM for the first, 1310 nM for the second.

Compared with CC[C@H](C)[C@@H](CO)NC(=O)c1ccc2cnc(NC(C)C)nc2c1 [Example 409, N-[(1S,2S)-1-(hydroxymethyl)-2-methylbutyl]-2-(isopropylamino)quinazoline-7-carboxamide], CC(C)Nc1ncc2ccc(C(=O)N[C@H](CO)Cc3ccccc3)cc2n1 [Example 415, N-((1S)-1-benzyl-2-hydroxyethyl]2-(isopropylamino)quinazoline-7-carboxamide] is 1.9-fold higher in Ki: 772 nM for the first, 1490 nM for the second.

CC(C)(CO)NC(=O)c1ccc2cnc(NC3CCCCC3)nc2c1 [Example 413, 2-(cyclohexylamino)-N-(2-hydroxy-1,1-dimethylethyl)quinazoline-7-carboxamide] and CC[C@@H](CO)NC(=O)c1ccc2cnc(NC3CCC3)nc2c1 [Example 416, 2-(cyclobutylamino)-N-[(1S)-1-(hydroxymethyl)propyl]quinazoline-7-carboxamide] are within 1.5-fold of each other in Ki: 1270 nM for the first, 1550 nM for the second.

Going from O=C(N[C@H](CO)Cc1c[nH]cn1)c1ccc2cnc(N[C@H]3CC[C@H](O)CC3)nc2c1 [Example 417, 2-[(trans-4-hydroxycyclohexyl)amino]-N-[(1S)-2-hydroxy-1-(1H-imidazol-4-ylmethyl)ethyl]quinazoline-7-carboxamide] to CC[C@@H](CO)NC(=O)c1cccc2cnc(N[C@H]3CC[C@H](O)CC3)nc12 [Example 441, 2-[(trans-4-hydroxycyclohexyl)amino]-N-[(1S)-1-(hydroxymethyl)propyl]quinazoline-8-carboxamide], the Ki falls from 1680 nM to 57 nM (29-fold).

First: O=C(N[C@H](CO)CC1CCCCC1)c1ccc2cnc(NC3CCCC3)nc2c1 [Example 419, N-[(1S)-2-cyclohexyl-1-(hydroxymethyl)ethyl]-2-(cyclopentylamino)quinazoline-7-carboxamide]
Second: CCC(CO)NC(=O)c1cccc2cnc(N[C@H]3CC[C@H](O)CC3)nc12 (stereo partly drawn) [Example 442, 2-[(trans-4-hydroxycyclohexyl)amino]-N-[1-(hydroxymethyl)propyl]quinazoline-8-carboxamide]
The Ki of the first is 37-fold higher: 3030 nM for the first, 83 nM for the second. The second binds more tightly here.
